According to patent publication US20250170156A1, “TOLL-LIKE RECEPTOR LIGANDS” (INIMMUNE CORPORATION, priority 2018, published 2025):

Legend:
[1] = Stability of aqueous formulations by reverse-phase-HPLC; format: physicochemical
Procedure: Formulation. The salted compound was accurately weighed into depyrogenated glass vials, and the required volume of aqueous vehicle added to attain the desired concentration. Vials were placed in a sonication bath (sonication bath temperature≤45° C.) to assist solubility and reduce particle size to achieve sterile filtration without significant loss of compound. Once the solution appeared homogeneous, the particle size was periodically monitored by dynamic light scattering until the solution turned clear and the particle size was <200 mn, or the particle size no longer reduced with continued sonication. The formulation was filtered through a 0.22p PVDF membrane filter into a depyrogenated glass vial and the resulting solution quantitated by RP-HPLC.
Aqueous formulations of compounds 1, 2, 3, 4, 5 and 6 were aliquoted into small depyrogenated vials for stability evaluation at temperatures of 2°-8° C., 25° C., and 40° C. This mirrors ICH stability temperature guidelines, but humidity was not controlled. A vial was pulled for each time point/temperature and analyzed by reverse-phase-HPLC (FIGS. 9-14) according to the following schedule starting from 2 weeks to up to 12 months.

hTLR4 = target: T1, hTLR4 (Homo sapiens, UniProt O00206+Q9Y6Y9); assay: HEK hTLR4 NF-κB driven SEAP reporter assay (hTLR4 activation); format: cell-based; details: 18 hours
T1 construct: expressed in transfected cells; host or cells: HEK cells expressing hTLR4 and an NF-κB driven SEAP reporter
T1 sequence (O00206 24-839): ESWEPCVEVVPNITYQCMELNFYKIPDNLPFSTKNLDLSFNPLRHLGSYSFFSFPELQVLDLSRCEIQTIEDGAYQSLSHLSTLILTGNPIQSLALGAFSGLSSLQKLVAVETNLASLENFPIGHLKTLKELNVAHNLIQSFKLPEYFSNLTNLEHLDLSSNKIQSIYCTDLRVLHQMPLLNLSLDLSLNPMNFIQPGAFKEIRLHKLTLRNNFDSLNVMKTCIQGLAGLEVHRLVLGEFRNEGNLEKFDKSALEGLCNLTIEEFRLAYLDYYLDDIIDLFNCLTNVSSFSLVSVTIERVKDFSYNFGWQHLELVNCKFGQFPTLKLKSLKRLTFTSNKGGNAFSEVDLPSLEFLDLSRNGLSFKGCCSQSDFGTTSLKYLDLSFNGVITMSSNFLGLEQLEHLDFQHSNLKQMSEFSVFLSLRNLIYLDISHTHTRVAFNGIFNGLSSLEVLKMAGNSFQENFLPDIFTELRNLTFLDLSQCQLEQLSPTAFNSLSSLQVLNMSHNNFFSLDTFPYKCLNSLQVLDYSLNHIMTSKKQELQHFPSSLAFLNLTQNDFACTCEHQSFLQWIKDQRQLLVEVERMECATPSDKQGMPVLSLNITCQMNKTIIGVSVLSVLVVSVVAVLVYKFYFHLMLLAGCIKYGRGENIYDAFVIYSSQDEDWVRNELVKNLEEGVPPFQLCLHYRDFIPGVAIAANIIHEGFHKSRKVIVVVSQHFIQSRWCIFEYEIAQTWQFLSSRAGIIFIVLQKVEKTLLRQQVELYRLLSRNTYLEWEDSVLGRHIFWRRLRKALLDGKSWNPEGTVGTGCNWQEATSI
T1 sequence (Q9Y6Y9 17-160 limits assumed): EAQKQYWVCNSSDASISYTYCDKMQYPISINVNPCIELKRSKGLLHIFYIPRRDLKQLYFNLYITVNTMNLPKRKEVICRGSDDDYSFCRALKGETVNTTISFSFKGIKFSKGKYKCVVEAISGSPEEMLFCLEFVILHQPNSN
Procedure: hTLR4 activation. HEK hTLR4-expressing cells were treated with 100 μM concentration of test compound followed by a 5-fold dilution series. HEK hTLR4-expressing cells also contained an NF-κB driven SEAP reporter and were stimulated with the indicated concentration (FIG. 1A-1C) of the test compound for 18 hours followed by assessment of the cellular supernatant for SEAP by a Quantikine SEAP assay (InvivoGen). The SEAP assay was used to look at secretion of the NF-κB driven alkaline-phosphatase reporter gene in response to TLR4 activation by the compounds and results are interpreted both in terms of potency of the compounds to induce SEAP activation (i.e. potency where a lower EC50 indicates higher potency) and efficacy for receptor activation (i.e. maximal SEAP induction).

[2] = test system: influenza virus antigen A/Victoria/210/2009-H3N2; assay: Vaccine adjuvant study, murine influenza virus vaccination model; format: in vivo, BALB/c mice; details: intramuscular, 0.1, 0.01 or 0.001 μg with 0.2 μg antigen, 14 days after single immunization, 2% glycine
Procedure: Vaccine adjuvant study. Compounds 2, 4, 5 and 7 were evaluated as vaccine adjuvant in a murine influenza virus vaccination model. 7-9 week old BALB/c mice (10 mice per group) were injected intramuscularly in a hind limb with the influenza virus antigen A/Victoria/210/2009-H3N2 (0.2 μg/mouse) with or without 0.1, 0.01 or 0.001 μg of compound 2, 4, 5 or 7 (formulated in 2% glycine). Fourteen days after a single immunization, animals were bled via the submandibular vein and serum was collected to assay for A/Victoria specific antibodies by ELISA assay (FIG. 7).

mRAW264.7 cells = assay: Induction of MIP-1β cytokine from mRAW264.7 cells (ELISA); format: cell-based; details: Mus musculus, 18 hours, read-out: mRaw MIP-1β EC50
Procedure: Induction of MIP-1β cytokine from mRAW264.7 cells. […] Treatments started at 20 μM concentration with a 5-fold serial dilution until 3.2768E-09 μM. Supernatants were harvested and analyzed for production of MIP-1β via ELISA (R& D Systems-cat #DY451).

primary hPBMCs [3] = assay: Induction of RANTES from primary hPBMCs (ELISA); details: Homo sapiens
hMM6 cells = assay: Induction of MIP-1β cytokine from hMM6 cells (ELISA); format: cell-based; details: Homo sapiens, 18 hours
Procedure: Induction of […] cytokine from hMM6 cells. The compounds were next tested in the established MM6 potency assay measuring MIP-1β cytokine production as an output measure of compound potency. Human monocytic cell line, Mono-Mac-6 (hMM6) was obtained from DSMZ (Brunswick, Germany). […] Treatments started at a 100 µM concentration proceeded with a 16-point, 5-fold dilution series. Supernatants were harvested and analyzed for production of MIP-1β via ELISA (R&D systems, catalog #DY271).

primary hPBMCs [4] = assay: Induction of MIP-1β from primary hPBMCs (ELISA); details: Homo sapiens

**Q.** With `CCCCCCCCCCC[C@H](CC(=O)NCCO[C@@H]1OC(CO)[C@@H](OS(=O)(=O)O)[C@H](NC(=O)C[C@@H](CCCCCCCCCCC)OC(=O)CCCCCCCCC)C1NC(=O)C[C@@H](CCCCCCCCCCC)OC(=O)CCCCCCCCC)OC(=O)CCCCCCCCC` (stereo partly drawn) [Compound 2, 2-[(R)-3-decanoyloxytetradecanoylamino]ethyl 2,3-di-[(R)-3-decanoyloxytetradecanoylamino]-2,3-dideoxy-4-O-sulfoxy-β-D-allopyranoside] as the molecule, how does the “time with no degradation” value ([1]; 25° C., formulated in 2% glycine (FIG. 10A)) read?
**A.** ≥ 12 months

**Q.** What about the degradation ([1]; after 12 months at 40° C., formulated in 2% glycerol (FIG. 10B)) of the same molecule?
**A.** less than 10%

**Q.** And the EC50 (hTLR4; Table 1a)?
**A.** 64 nM

**Q.** And the EC50 (hTLR4; Table 1b)?
**A.** 41 nM

**Q.** What about the “adjuvant effect on flu-specific IgG2a antibody titers compared to antigen alone” value [2] of the same molecule?
**A.** dose dependent adjuvant effect

**Q.** What about the EC50 (mRAW264.7 cells) of the same molecule?
**A.** 0.0176 nM

**Q.** What about the EC50 (primary hPBMCs [3]; read-out: hPBMCs EC50 RANTES, Table 3a, Average of Donors 10, 5, 2) of the same molecule?
**A.** 0.243 nM

**Q.** And the EC50 (primary hPBMCs [3]; read-out: hPBMCs EC50 RANTES, Table 3a, Donor 2)?
**A.** 0.38 nM

**Q.** And the EC50 (primary hPBMCs [3]; read-out: hPBMCs EC50 RANTES, Table 3a, Donor 5)?
**A.** 0.285 nM

**Q.** What about the EC50 (primary hPBMCs [3]; read-out: hPBMCs EC50 RANTES, Table 3a, Donor 10) of the same molecule?
**A.** 0.0642 nM

**Q.** What about the EC50 (primary hPBMCs [3]; read-out: hPBMCs EC50 RANTES, Table 4b, Average of Donors 22, 5) of the same molecule?
**A.** 0.423 nM

**Q.** And the EC50 (primary hPBMCs [3]; read-out: hPBMCs EC50 RANTES, Table 4b, Donor 5)?
**A.** 0.238 nM

**Q.** What about the EC50 (primary hPBMCs [3]; read-out: hPBMCs EC50 RANTES, Table 4b, Donor 22) of the same molecule?
**A.** 0.609 nM

**Q.** What about the EC50 (hMM6 cells) of the same molecule?
**A.** 5.89 nM

**Q.** What about the EC50 (primary hPBMCs [4]; read-out: hPBMCs EC50 MIP-1β, Table 3a, Average of Donors 10, 5, 2) of the same molecule?
**A.** 0.0963 nM

**Q.** And the EC50 (primary hPBMCs [4]; read-out: hPBMCs EC50 MIP-1β, Table 3a, Donor 2)?
**A.** 0.0755 nM

**Q.** And the EC50 (primary hPBMCs [4]; read-out: hPBMCs EC50 MIP-1β, Table 3a, Donor 5)?
**A.** 0.166 nM

**Q.** What about the EC50 (primary hPBMCs [4]; read-out: hPBMCs EC50 MIP-1β, Table 3a, Donor 10) of the same molecule?
**A.** 0.0475 nM

**Q.** And the EC50 (primary hPBMCs [4]; read-out: hPBMCs EC50 MIP-1β, Table 4b, Average of Donors 22, 5)?
**A.** 0.453 nM

**Q.** And the EC50 (primary hPBMCs [4]; read-out: hPBMCs EC50 MIP-1β, Table 4b, Donor 5)?
**A.** 0.119 nM

**Q.** What about the EC50 (primary hPBMCs [4]; read-out: hPBMCs EC50 MIP-1β, Table 4b, Donor 22) of the same molecule?
**A.** 0.786 nM
